Measured values: patent US6040307A, “Methods ad compositions of (-) ketoconazole for treating fungal yeast and dermatophyte infections” (priority 1999, dated 2000)
“Also recorded” adds a separate entry of the source.

Legend:
delayed rectifier (Ik) = conditions: cited from earlier work
cardiac repolarization = conditions: in vivo; cited from earlier work
[1] = tested on: isolated guinea pig hearts; assay: QT duration and action potential duration in isolated guinea pig hearts, perfused with oxygenated Tyrode's solution
Procedure: The hearts were perfused with an oxygenated Tyrode's solution, containing 0.0; 1.0; 5.0 or 10.0 μM of ketoconazole. QT duration and action potential duration (APD) were measured from cardiac electrodes. APD was measured at 50% (APD-50) and 90% (APD-90). In the table, "N" is the number of hearts, and QT and APD are measured in milliseconds.

[2] = tested on: microsporum canis, trichophyton mentagrophytes, candida tropicalis, candida albicans, and other fungi and bacteria; conditions: cited from earlier work
synthesis of ergosterol = conditions: fungal cell membranes; cited from earlier work
liver = conditions: cited from earlier work
patients = conditions: human, in vivo; cited from earlier work
[3] = in vivo, po; cited from earlier work
[4] = of 75 cases adequately followed up

C=C[C@H]1C[N@@]2CC[C@H]1C[C@@H]2[C@@H](O)c1ccnc2ccc(OC)cc12 [quinidine]
block of cellular potassium channel delayed rectifier (Ik) (delayed rectifier (Ik)): block a cellular potassium channel called the delayed rectifier (Ik)
prolongation of cardiac repolarization (cardiac repolarization): cause a prolongation of cardiac repolarization
torsades de pointes (side effect) (cardiac repolarization): well known side effect

CC(=O)N1CCN(c2ccc(OCC3COC(Cn4ccnc4)(c4ccc(Cl)cc4Cl)O3)cc2)CC1 (racemic) [Ketoconazole, 1-acetyl-4-[4-[[2-(2,4-dichlorophenyl)-2-(1H-imidazole-1-ylmethyl)-1,3-dioxolan-4-yl]methoxy]phenyl]piperazine]
APD-50 ([1]; 1.0 μM, N = 2 hearts, baseline 145 ± 5): 149 ± 1 milliseconds
APD-90 ([1]; 1.0 μM, N = 2 hearts, baseline 185 ± 10): 195 ± 5 milliseconds
QT ([1]; 1.0 μM, N = 2 hearts, baseline 230 ± 10): 232 ± 9 milliseconds
APD-50 ([1]; 5.0 μM, N = 3 hearts, baseline 147 ± 5): 163 ± 5 milliseconds
APD-90 ([1]; 5.0 μM, N = 3 hearts, baseline 187 ± 9): 221 ± 8 milliseconds
QT ([1]; 5.0 μM, N = 3 hearts, baseline 233 ± 9): 261 ± 8 milliseconds
APD-50 ([1]; 10.0 μM, N = 3 hearts, baseline 140 ± 8): 173 ± 2 milliseconds
APD-90 ([1]; 10.0 μM, N = 3 hearts, baseline 177 ± 14): 233 ± 9 milliseconds
QT duration and action potential duration (in words) ([1]; isolated guinea pig hearts): increases QT duration and action potential duration
arrhythmogenic effect (in words) ([1]; isolated guinea pig hearts, listed as racemic ketoconazole): may be associated with an increased risk of cardiac arrhythmia; also recorded: indicative of a potential arrhythmogenic effect
effect of 10% inactivated bovine serum on antifungal activity ([2]; Sabouraud broth containing 10% inactivated bovine serum): enhanced
inhibition of growth ([2]; Sabouraud broth, 14 days of incubation): Complete or marked inhibition of growth
synthesis of ergosterol (synthesis of ergosterol): impairs the synthesis of ergosterol
reports of hepatotoxicity (liver; 1981-1984, United Kingdom): 82 reports
time for liver function tests to return to normal after treatment was stopped (average) (liver; average): 3.1 months
hepatocellular injury suggested by serum liver function tests (liver; in vivo): 10 of the 16
deaths among the cases probably related to treatment (liver; of 16 cases): 3 deaths
cases possibly related to treatment (liver; [4]): 48 cases
cases probably related to treatment (liver; [4]): 16 cases
deaths among the reports of hepatotoxicity (liver; of 82 reports): 5 deaths
gastrointestinal side effects, occurrence in patients (patients): 5-10 % of patients
torsades de pointes (patients): torsades de pointes, has been reported
major route of excretion [3]: via the bile into the intestinal tract
metabolism [3]: eventually metabolized to several inactive metabolites
serum concentration [3]: a linear increase in serum concentration

CCN(CC)CCNC(=O)c1ccc(NC(C)=O)cc1 [acetyl-procainamide]
block of cellular potassium channel delayed rectifier (Ik) (delayed rectifier (Ik)): block a cellular potassium channel called the delayed rectifier (Ik)
prolongation of cardiac repolarization (cardiac repolarization): cause a prolongation of cardiac repolarization
torsades de pointes (side effect) (cardiac repolarization): well known side effect

CC(C)NCC(O)c1ccc(NS(C)(=O)=O)cc1 (stereo not shown) [sotalol]
block of cellular potassium channel delayed rectifier (Ik) (delayed rectifier (Ik)): block a cellular potassium channel called the delayed rectifier (Ik)
prolongation of cardiac repolarization (cardiac repolarization): cause a prolongation of cardiac repolarization
torsades de pointes (side effect) (cardiac repolarization): well known side effect
